Data as given in patent publication US11897848B2, “Crystalline forms of ozanimod and processes for preparation thereof” (RECEPTOS LLC, priority 2016, dated 2024).
Values after ≈ are worked out from the molar mass of the structure shown.

What was measured:
Format in all cases: physicochemical
[1] = Solubility assessment in H2O, saturated solution measured by HPLC
Experimental: Form CS9 of ozanimod was suspended into H2O to obtain saturated solution. After being equilibrated for 1 h, 4 h and 24 h, concentrations of the saturated solutions were measured by HPLC.

[2] = Particle size distribution test (laser particle size analyzer, wet process); conditions: for MV (average particle size calculated by volume): dispersion medium Isopar G; for D10 / D50 / D90: volume distribution
Experimental: The particle size distribution test in the present disclosure is acquired by the S3500 laser particle size analyzer of Microtrac. Microtrac S3500 is equipped with the SDC (Sample Delivery Controller). The test is carried out by wet process, and the dispersion medium is Isopar G The parameters are as follow:
Certain amount of samples of Form CS9, Form CS10 and Form CS11 of ozanimod were taken for particle size distribution test.
The abbreviations used in the invention are explained as follows: • Mv: Average particle size calculated by volume. • D10: particle size which accounts for 10% of the particle size distribution (volume distribution). • D50: particle size which accounts for 50% of the particle size distribution (volume distribution), also known as the median diameter. • D90: particle size which accounts for 90% of the particle size distribution (volume distribution).

[3] = Hygroscopicity assessment by dynamic vapor sorption (DVS); conditions: for Weight Gain under 80% RH: DVS, 25° C.; for Hygroscopicity according to the criteria of hygroscopicity: based on weight gain under 80% RH
Experimental: Dynamic Vapor Sorption (DVS) is measured via an SMS (Surface Measurement Systems Ltd.) intrinsic DVS. Typical Parameters for DVS test are as follows: • Temperature: 25° C. • Gas and flow rate: N2, 200 mL/min • dm/dt: 0.002%/min • RH range: 0% RH to 95% RH
Dynamic vapor sorption (DVS) was applied to test hygroscopicity of Form CS9 with about 10 mg of samples. The DVS plot was substantially as depicted in FIG. 14.
Dynamic vapor sorption (DVS) was applied to test hygroscopicity of Form CS10 with about 10 mg of samples. The DVS plot is substantially as depicted in FIG. 15.
Dynamic vapor sorption (DVS) was applied to test hygroscopicity of Form CS11 with about 10 mg of samples. The DVS plot is substantially as depicted in FIG. 16.

[4] = Stability assessment in chamber with controlled temperature and relative humidity (XRPD, HPLC); conditions: for Stability (verdict in words): after storage for 2 weeks
Experimental: Sample of Form CS10 was placed in chamber with controlled temperature and relative humidity at 40° C./75% RH for 2 weeks, and then the solids were sampled for XRPD test. The XRPD pattern overlay was substantially as depicted in FIG. 23 (from top to bottom: XRPD pattern of ozanimod Form CS10 before and after being stored under 40° C./75% RH for 2 weeks).
Two samples of Form CS11 of ozanimod were placed in chamber with controlled temperature and relative humidity at 25° C./60% RH and 40° C./75% RH for 2 weeks. XRPD and HPLC were used to test the crystalline form and chemical purity. The XRPD overlay pattern was substantially as depicted in FIG. 24 (from top to bottom: XRPD pattern of ozanimod Form CS11 before and after being stored under 25° C./60% RH and 40° C./75% RH for 2 weeks).

SMILES	Solubility in water (verdict in words) [1]	solubility at 1 h ([1]; water, thermodynamic from solid, equilibrated for 1 h) [µg/mL]	solubility at 4 h ([1]; water, thermodynamic from solid, equilibrated for 4 h) [µg/mL]	MV (average particle size calculated by volume) [2] [μm]	D10 [2] [μm]	D50 [2] [μm]	D90 [2] [μm]	Weight Gain under 80% RH [3] [%]	Hygroscopicity according to the criteria of hygroscopicity [3]	Crystalline form change by XRPD ([4]; 40° C./75% RH for 2 weeks)	Stability (verdict in words) [4]	Chemical purity change by HPLC ([4]; 25° C./60% RH for 2 weeks)	Crystalline form change by XRPD ([4]; 25° C./60% RH for 2 weeks)	Chemical purity change by HPLC ([4]; 40° C./75% RH for 2 weeks)
CC(C)Oc1ccc(-c2nc(-c3cccc4c3CC[C@@H]4NCCO)no2)cc1C#N [Form CS9, ozanimod]	good solubility in water	470 (≈ 1160 µM)	360 (≈ 890 µM)	339.9	50.97	284.3	728.7	2.88	hygroscopic					
CC(C)Oc1ccc(-c2nc(-c3cccc4c3CC[C@@H]4NCCO)no2)cc1C#N [Form CS10, ozanimod]				317.2	65.87	254.8	669.0	1.02	slightly hygroscopic	No form change	good stability			
CC(C)Oc1ccc(-c2nc(-c3cccc4c3CC[C@@H]4NCCO)no2)cc1C#N [Form CS11, ozanimod]				137.7	27.13	110.4	286.6	0.57	slightly hygroscopic	No form change	good stability	No form change and obvious purity decrease	No form change	No form change and obvious purity decrease
